Laboratory results reported in US20260159533A1, “INHIBITORS OF COMPLEMENT FACTORS AND USES THEREOF” (Annexon, Inc., priority 2022, published 2026).
Where a name gives a salt, the structure may show the parent alone.

The compounds below were run against T1, human C1s protein (Homo sapiens, UniProt P09871) (assay: recombinant C1s enzymatic assay (YLGR-Rh110-dPro substrate hydrolysis, fluorescence)). Settings: recombinant human C1s 2.5 nM, substrate YLGR-Rh110-dPro 20 μM, 15 min pre-incubation, 60 min RT; read-out: rec. hC11s pIC50 (converted).
T1 construct: purchased R&D Systems or Complement Technologies 2060-SE or A104
T1 sequence (P09871 16-688): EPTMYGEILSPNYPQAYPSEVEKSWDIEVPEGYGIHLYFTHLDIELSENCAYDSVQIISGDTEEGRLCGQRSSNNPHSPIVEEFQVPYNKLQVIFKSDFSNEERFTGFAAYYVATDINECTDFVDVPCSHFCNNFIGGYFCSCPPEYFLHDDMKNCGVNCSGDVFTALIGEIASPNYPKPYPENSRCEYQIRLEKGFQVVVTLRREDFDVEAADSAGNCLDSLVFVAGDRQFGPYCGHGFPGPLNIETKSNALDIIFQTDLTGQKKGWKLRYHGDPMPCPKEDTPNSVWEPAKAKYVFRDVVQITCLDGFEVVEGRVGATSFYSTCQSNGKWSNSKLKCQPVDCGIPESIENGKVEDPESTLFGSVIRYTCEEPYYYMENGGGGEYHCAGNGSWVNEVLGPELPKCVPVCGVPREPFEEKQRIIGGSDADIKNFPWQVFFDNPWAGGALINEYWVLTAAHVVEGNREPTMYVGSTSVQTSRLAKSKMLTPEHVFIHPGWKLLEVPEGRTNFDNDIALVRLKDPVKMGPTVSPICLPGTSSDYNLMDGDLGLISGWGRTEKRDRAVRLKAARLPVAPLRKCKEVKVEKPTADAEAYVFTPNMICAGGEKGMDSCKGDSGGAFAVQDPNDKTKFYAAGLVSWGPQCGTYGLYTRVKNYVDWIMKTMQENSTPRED
Type: biochemical
Description: Compound testing in the purified or recombinant C1s enzymatic assay C1s is a serine protease; its enzymatic activity is measured in vitro by the hydrolysis of the synthetic substrate YLGR-Rh110-dPro (Kerr F K, O'Brien G, Quinsey N S, Whisstock J C, Boyd S, de la Banda M G, Kaiserman D, Matthews A Y, Bird P I, Pike R N. Elucidation of the substrate specificity of the Cis protease of the classical complement pathway. J. Biol. Chem. (2005) 280, 39510-39514). The enzyme cleaves the substrate with the release of Rh110 which is highly fluorescent. Cis inhibitors prevent the hydrolysis of the substrate thus resulting in a decrease of the signal.
The recombinant C1s enzymatic assay is performed using the human C1s protein (R&D Systems, 2060-SE or Complement Technologies, A104). The assay buffer composition is: 50 mM HEPES pH 7.5 (Sigma, H3375), 150 mM NaCl (Sigma, S7653), 0.2% PEG 8000 (VWR, AA43443-22), 0.01% Pluronic F127 (Sigma, P2243). On the day of the experiment 0.1 mg/mL BSA (Sigma, B4287) is added fresh to the buffer. The test item stock solutions are serially diluted 1:3 or 1:4 or 1:5 with DMSO, 11-point curves, in a 384-well compound plate. Nafamostat concentration curve is always included in the assay plate as a reference control.
The assay plate is prepared by dispensing 0.25 μL from compound plate into a 384-well black assay plate (assay plate, Greiner Fluotrac 200, 781076, VWR 736-0140). The high controls are prepared dispensing in 0.25 μL DMSO in column 23, rows AH or AP and low controls with 0.25 μL of 0.1 μM Nafamostat. Cis solution is prepared as 2× of the 2.5 nM final assay concentration. The YLGR-Rh110-dPro substrate is prepared as 2× of the final assay concentration of 20 μM. 5 μL/well of 2× enzyme solution is dispensed and pre-incubated for 15 min with the compounds. The enzymatic reaction is the started with 5 μL/well of the 2× substrate solution. The plate is incubated for 60 min RT in the dark and fluorescence is measured (ex 485/em 535 nm) using an Envision (PerkinElmer) or an equivalent instrument.

| SMILES | IC50 [nM] |
| --- | --- |
| Nc1cnnc2cc(-c3cc(B(O)O)c(Oc4ccccc4)cc3-n3cccn3)ccc12 [Example 64, [5-(4-aminocinnolin-7-yl)-2-phenoxy-4-pyrazol-1-yl-phenyl]boronic acid formic acid salt] | 12.3 |
| CC1COc2cc(-n3cccn3)c(-c3ccc4c(N)cnnc4c3)cc2B(O)O1 (single isomer, unassigned; enantiomer 2) [Example 73, 7-(1-hydroxy-3-methyl-7-pyrazol-1-yl-3,4-dihydro-2,5,1-benzodioxaborepin-8-yl)cinnolin-4-amine enantiomer 2] | 1.51 |
| COc1cc(-c2cn[nH]c2)c(-c2ccc3c(N)cnnc3c2)cc1B(O)O [Example 54, [5-(4-aminocinnolin-7-yl)-2-methoxy-4-(1H-pyrazol-4-yl)phenyl]boronic acid] | 6.31 |
| Nc1cnnc2cc(-c3cc4c(cc3-c3ncco3)OCCOB4O)ccc12 [Example 74, 7-(1-hydroxy-7-oxazol-2-yl-3,4-dihydro-2,5,1-benzodioxaborepin-8-yl)cinnolin-4-amine] | 1.12 |
| COc1cc(-c2ncc(C(F)F)o2)c(-c2ccc3c(N)cnnc3c2)cc1B(O)O [Example 90, [5-(4-aminocinnolin-7-yl)-4-[5-(difluoromethyl)oxazol-2-yl]-2-methoxy-phenyl]boronic acid formic acid salt] | 1.02 |
| CC1COB(O)c2cc(-c3ccc4c(N)cnnc4c3)c(-n3cccn3)cc2O1 (stereo not drawn) [Example 71, 7-(1-hydroxy-4-methyl-7-pyrazol-1-yl-3,4-dihydro-2,5,1-benzodioxaborepin-8-yl)cinnolin-4-amine] | 2.09 |
| COc1cnn(-c2cc(OC)c(B(O)O)cc2-c2ccc3c(N)cnnc3c2)c1 [Example 37, [5-(4-aminocinnolin-7-yl)-2-methoxy-4-(4-methoxypyrazol-1-yl)phenyl]boronic acid formic acid salt] | 0.912 |
| CC(C)Oc1cc(-n2cccn2)c(-c2ccc3c(N)cnnc3c2)cc1B(O)O [Example 39, [5-(4-aminocinnolin-7-yl)-2-propan-2-yloxy-4-pyrazol-1-ylphenyl]boronic acid formic acid salt] | 2.69 |
| COc1cc(-c2cc[nH]n2)c(-c2ccc3c(N)cnnc3c2)cc1B(O)O [Example 36, [5-(4-aminocinnolin-7-yl)-2-methoxy-4-(1H-pyrazol-3-yl)phenyl]boronic acid formic acid salt] | 1.29 |
| Nc1cnnc2cc(-c3cc(B(O)O)c(OC4CC(F)(F)C4)cc3-n3cccn3)ccc12 [Example 34, [5-(4-aminocinnolin-7-yl)-2-(3,3-difluorocyclobutoxy)-4-(1H-pyrazol-1-yl)phenyl]boronic acid formic acid salt] | 11.5 |
| COc1cc(-c2nc[nH]n2)c(-c2ccc3c(N)cnnc3c2)cc1B(O)O [Example 31, [5-(4-aminocinnolin-7-yl)-2-methoxy-4-(1H-1,2,4-triazol-3-yl)phenyl]boronic acid] | 1.05 |
| COc1cc(-c2c[nH]cn2)c(-c2ccc3c(N)cnnc3c2)cc1B(O)O [Example 45, [5-(4-aminocinnolin-7-yl)-4-(1H-imidazol-4-yl)-2-methoxyphenyl]boronic acid] | 5.5 |
| Cc1cc(-c2cc[nH]n2)c(-c2ccc3c(N)cnnc3c2)cc1B(O)O [Example 41, [5-(4-aminocinnolin-7-yl)-2-methyl-4-(1H-pyrazol-3-yl)phenyl]boronic acid] | 24.5 |
| COc1cc(-c2nccs2)c(-c2ccc3c(N)cnnc3c2)cc1B(O)O [Example 38, [5-(4-aminocinnolin-7-yl)-2-methoxy-4-thiazol-2-yl-phenyl]boronic acid formic acid salt] | 1.02 |
| Nc1cnnc2cc(-c3cc4c(cc3-n3cccn3)OCCOB4O)ccc12 [Example 70, 8-(4-aminocinnolin-7-yl)-7-(1H-pyrazol-1-yl)-3,4-dihydro-1H-2,5,1-benzodioxaborepin-1-ol] | 1.26 |

The next lines start with the values.

| IC50 [nM] | SMILES |
| --- | --- |
| 1.62 | Cc1nc(-c2ccc(B(O)O)cc2-c2ccc3c(N)cnnc3c2)ns1 [Example 18, [3-(4-aminocinnolin-7-yl)-4-(5-methyl-1,2,4-thiadiazol-3-yl)phenyl]boronic acid] |
| 0.933 | Nc1cnnc2cc(-c3cc(B(O)O)ccc3-n3nccn3)ccc12 [Example 15, [3-(4-aminocinnolin-7-yl)-4-(2H-1,2,3-triazol-2-yl)phenyl]boronic acid formic acid salt] |
| 1.86 | CS(=O)(=O)Nc1cnn(-c2ccc(B(O)O)cc2-c2ccc3c(N)cnnc3c2)c1 [Example 21, [3-(4-aminocinnolin-7-yl)-4-(4-methanesulfonamido-1H-pyrazol-1-yl)phenyl]boronic acid] |
| 15.5 | Nc1cnnc2cc(-c3cc(B(O)O)ccc3-c3ccccn3)ccc12 [Example 63, [3-(4-aminocinnolin-7-yl)-4-(2-pyridyl)phenyl]boronic acid formic acid salt] |
| 1.23 | CCOc1cc(-n2cccn2)c(-c2ccc3c(N)cnnc3c2)cc1B(O)O [Example 82, [5-(4-aminocinnolin-7-yl)-2-ethoxy-4-pyrazol-1-yl-phenyl]boronic acid] |
| 0.912 | Nc1cnnc2cc(-c3cc(B(O)O)ccc3-c3ncco3)ccc12 [Example 25, [3-(4-aminocinnolin-7-yl)-4-(1,3-oxazol-2-yl)phenyl]boronic acid formic acid salt] |
| 0.589 | Nc1cnnc2cc(-c3cc(B(O)O)ccc3-n3ncnn3)ccc12 [Example 12, [3-(4-aminocinnolin-7-yl)-4-(2H-1,2,3,4-tetrazol-2-yl)phenyl]boronic acid] |
| 4.47 | Nc1cnnc2cc(-c3cc(B(O)O)cnc3-n3cccn3)ccc12 [Example 13, [5-(4-aminocinnolin-7-yl)-6-(1H-pyrazol-1-yl)pyridin-3-yl]boronic acid] |
| 14.8 | Nc1cnnc2cc(-c3cc(B(O)O)ccc3-n3ccc(C(F)F)n3)ccc12 [Example 14, [3-(4-aminocinnolin-7-yl)-4-[3-(difluoromethyl)-1H-pyrazol-1-yl]phenyl]boronic acid formic acid salt] |
| 1.78 | CC(=O)Nc1cnn(-c2ccc(B(O)O)cc2-c2ccc3c(N)cnnc3c2)c1 [Example 10, [3-(4-aminocinnolin-7-yl)-4-(4-acetamido-1H-pyrazol-1-yl)phenyl]boronic acid formic acid salt] |
| 4.47 | Nc1cnnc2cc(-c3cc(B(O)O)c(OC(F)F)cc3-n3cccn3)ccc12 [Example 27, [5-(4-aminocinnolin-7-yl)-2-(difluoromethoxy)-4-(1H-pyrazol-1-yl)phenyl]boronic acid formic acid salt] |
| 2.19 | COc1cnn(-c2ccc(B(O)O)cc2-c2ccc3c(N)cnnc3c2)c1 [Example 28, [3-(4-aminocinnolin-7-yl)-4-(4-methoxy-1H-pyrazol-1-yl)phenyl]boronic acid formic acid salt] |
| 29.5 | CNC(=O)c1ccn(-c2ccc(B(O)O)cc2-c2ccc3c(N)cnnc3c2)n1 [Example 6, [3-(4-aminocinnolin-7-yl)-4-[3-(methylcarbamoyl)-1H-pyrazol-1-yl]phenyl]boronic acid] |
| 66.1 | Nc1cnnc2cc(-c3cc(B(O)O)ccc3-n3ccnc3)ccc12 [Example 3, [3-(4-aminocinnolin-7-yl)-4-(1H-imidazol-1-yl)phenyl]boronic acid] |
| 14.8 | Cc1cc(-n2cccn2)c(-c2ccc3c(N)cnnc3c2)cc1B(O)O [Example 8, [5-(4-aminocinnolin-7-yl)-2-methyl-4-(1H-pyrazol-1-yl)phenyl]boronic acid] |
